Laboratory results: the NIST ThermoML archive (doi:10.1007/s10765-006-0095-5)

Columns and labels:
[1] = refractive index (Na D-line) (dimensionless); xn = mol fraction of the nth substance listed; details: 101 kPa, Liquid
[2] = xn = mol fraction of the nth substance listed; details: 101 kPa, Liquid

CCN(CC)CC [triethylamine] + c1ccccc1
Details	mass density, [2] [kg/m3]	refractive index, [1]
278.15 K, x2 = 0.1145	751.3	1.4149
278.15 K, x2 = 0.2043	759.4	1.4197
278.15 K, x2 = 0.3005	769.2	1.4261
278.15 K, x2 = 0.4005	780.6	1.4336
278.15 K, x2 = 0.5023	793.6	1.4421
278.15 K, x2 = 0.6037	808.1	1.4518
278.15 K, x2 = 0.7035	824.2	1.4625
278.15 K, x2 = 0.8079	843.9	1.4756
278.15 K, x2 = 0.9069	866.2	1.4902
283.15 K, x2 = 0.1145	747.4	1.4133
283.15 K, x2 = 0.2043	755.5	1.418
283.15 K, x2 = 0.3005	765.4	1.4243
283.15 K, x2 = 0.4005	776.9	1.4318
283.15 K, x2 = 0.5023	790	1.4404
283.15 K, x2 = 0.6037	804.6	1.4501
283.15 K, x2 = 0.7035	821	1.4609
283.15 K, x2 = 0.8079	841	1.474
283.15 K, x2 = 0.9069	863.5	1.4886
288.15 K, x2 = 0.1145	743.3	1.4113
288.15 K, x2 = 0.2043	751.5	1.416
288.15 K, x2 = 0.3005	761.4	1.4224
288.15 K, x2 = 0.4005	772.9	1.43
288.15 K, x2 = 0.5023	786	1.4387
288.15 K, x2 = 0.6037	800.7	1.4485
288.15 K, x2 = 0.7035	817.2	1.4594
288.15 K, x2 = 0.8079	837.4	1.4727
288.15 K, x2 = 0.9069	859.9	1.4872
293.15 K, x2 = 0.1145	738.4	1.409
293.15 K, x2 = 0.2043	746.8	1.4137
293.15 K, x2 = 0.3005	756.7	1.4201
293.15 K, x2 = 0.4005	768.2	1.4278
293.15 K, x2 = 0.5023	781.4	1.4366
293.15 K, x2 = 0.6037	796.1	1.4465
293.15 K, x2 = 0.7035	812.7	1.4576
293.15 K, x2 = 0.8079	833.1	1.471
293.15 K, x2 = 0.9069	855.6	1.4856
298.15 K, x2 = 0	723.4	–
298.15 K, x2 = 0.1145	733.4	1.4062
298.15 K, x2 = 0.2043	741.8	1.411
298.15 K, x2 = 0.3005	751.7	1.4173
298.15 K, x2 = 0.4005	763.1	1.425
298.15 K, x2 = 0.5023	776.1	1.4338
298.15 K, x2 = 0.6037	790.7	1.4438
298.15 K, x2 = 0.7035	807.2	1.4549
298.15 K, x2 = 0.8079	827.4	1.4683
298.15 K, x2 = 0.9069	849.6	1.4829
303.15 K, x2 = 0	717.9	–
303.15 K, x2 = 0.1145	728.2	1.4038
303.15 K, x2 = 0.2043	737	1.4088
303.15 K, x2 = 0.3005	747.1	1.4151
303.15 K, x2 = 0.4005	758.7	1.4228
303.15 K, x2 = 0.5023	772	1.4317
303.15 K, x2 = 0.6037	786.8	1.4418
303.15 K, x2 = 0.7035	803.6	1.4531
303.15 K, x2 = 0.8079	824.2	1.4666
303.15 K, x2 = 0.9069	846.8	1.4812
308.15 K, x2 = 0	712.9	–
308.15 K, x2 = 0.1145	723.4	1.4009
308.15 K, x2 = 0.2043	732.3	1.4061
308.15 K, x2 = 0.3005	742.4	1.4125
308.15 K, x2 = 0.4005	754	1.4203
308.15 K, x2 = 0.5023	767.3	1.4293
308.15 K, x2 = 0.6037	782.1	1.4395
308.15 K, x2 = 0.7035	799	1.451
308.15 K, x2 = 0.8079	819.6	1.4647
308.15 K, x2 = 0.9069	842.1	1.4795
313.15 K, x2 = 0	708.3	–
313.15 K, x2 = 0.1145	718.9	1.3988
313.15 K, x2 = 0.2043	727.9	1.4043
313.15 K, x2 = 0.3005	738.1	1.4107
313.15 K, x2 = 0.4005	749.7	1.4185
313.15 K, x2 = 0.5023	762.9	1.4275
313.15 K, x2 = 0.6037	777.8	1.4378
313.15 K, x2 = 0.7035	794.7	1.4495
313.15 K, x2 = 0.8079	815.4	1.4632
313.15 K, x2 = 0.9069	837.8	1.4779
318.15 K, x2 = 0	701.6	–
318.15 K, x2 = 0.1145	712.6	1.3961
318.15 K, x2 = 0.2043	721.7	1.4017
318.15 K, x2 = 0.3005	732.1	1.4082
318.15 K, x2 = 0.4005	743.9	1.4161
318.15 K, x2 = 0.5023	757.2	1.4252
318.15 K, x2 = 0.6037	772.3	1.4356
318.15 K, x2 = 0.7035	789.5	1.4474
318.15 K, x2 = 0.8079	810.5	1.4613
318.15 K, x2 = 0.9069	833.1	1.4759

CCCCN(CCCC)CCCC [tributylamine] + c1ccccc1
Details	mass density, [2] [kg/m3]	refractive index, [1]
278.15 K, x2 = 0.0702	790.1	1.4425
278.15 K, x2 = 0.1162	791.1	1.4495
278.15 K, x2 = 0.1687	792.5	1.4566
278.15 K, x2 = 0.2383	794.9	1.4636
278.15 K, x2 = 0.3091	797.7	1.4707
278.15 K, x2 = 0.4032	802.2	1.4779
278.15 K, x2 = 0.5043	808.5	1.485
278.15 K, x2 = 0.6492	821.3	1.4922
278.15 K, x2 = 0.8251	846.8	1.4994
283.15 K, x2 = 0.0702	786.7	1.4414
283.15 K, x2 = 0.1162	787.8	1.4485
283.15 K, x2 = 0.1687	789.3	1.4557
283.15 K, x2 = 0.2383	791.8	1.4628
283.15 K, x2 = 0.3091	794.6	1.47
283.15 K, x2 = 0.4032	799.2	1.4771
283.15 K, x2 = 0.5043	805.6	1.4842
283.15 K, x2 = 0.6492	818.5	1.4914
283.15 K, x2 = 0.8251	844.1	1.4985
288.15 K, x2 = 0.0702	783.2	1.4406
288.15 K, x2 = 0.1162	784.4	1.448
288.15 K, x2 = 0.1687	786	1.4551
288.15 K, x2 = 0.2383	788.5	1.4621
288.15 K, x2 = 0.3091	791.3	1.4692
288.15 K, x2 = 0.4032	795.9	1.4763
288.15 K, x2 = 0.5043	802.3	1.4834
288.15 K, x2 = 0.6492	815.2	1.4905
288.15 K, x2 = 0.8251	840.8	1.4976
293.15 K, x2 = 0.0702	779.9	1.4394
293.15 K, x2 = 0.1162	781.1	1.4466
293.15 K, x2 = 0.1687	782.7	1.4538
293.15 K, x2 = 0.2383	785.3	1.4609
293.15 K, x2 = 0.3091	788.1	1.4681
293.15 K, x2 = 0.4032	792.7	1.4752
293.15 K, x2 = 0.5043	799	1.4824
293.15 K, x2 = 0.6492	811.8	1.4896
293.15 K, x2 = 0.8251	837.1	1.4967
298.15 K, x2 = 0	774.3	–
298.15 K, x2 = 0.0702	775.6	1.4385
298.15 K, x2 = 0.1162	776.9	1.4456
298.15 K, x2 = 0.1687	778.5	1.4527
298.15 K, x2 = 0.2383	781	1.4602
298.15 K, x2 = 0.3091	783.8	1.4671
298.15 K, x2 = 0.4032	788.3	1.4742
298.15 K, x2 = 0.5043	794.5	1.4816
298.15 K, x2 = 0.6492	807	1.4881
298.15 K, x2 = 0.8251	831.6	1.4951
303.15 K, x2 = 0	770.8	–
303.15 K, x2 = 0.0702	772.5	1.4383
303.15 K, x2 = 0.1162	773.8	1.4454
303.15 K, x2 = 0.1687	775.4	1.4524
303.15 K, x2 = 0.2383	777.9	1.46
303.15 K, x2 = 0.3091	780.8	1.4667
303.15 K, x2 = 0.4032	785.4	1.474
303.15 K, x2 = 0.5043	791.6	1.4812
303.15 K, x2 = 0.6492	804.3	1.4876
303.15 K, x2 = 0.8251	829	1.4946
308.15 K, x2 = 0	767.2	–
308.15 K, x2 = 0.0702	769.1	1.4374
308.15 K, x2 = 0.1162	770.4	1.4443
308.15 K, x2 = 0.1687	771.9	1.4514
308.15 K, x2 = 0.2383	774.4	1.4589
308.15 K, x2 = 0.3091	777.3	1.4658
308.15 K, x2 = 0.4032	781.9	1.4733
308.15 K, x2 = 0.5043	788.1	1.4803
308.15 K, x2 = 0.6492	800.6	1.4868
308.15 K, x2 = 0.8251	824.9	1.4936
313.15 K, x2 = 0	763.6	–
313.15 K, x2 = 0.0702	765.5	1.4366
313.15 K, x2 = 0.1162	766.8	1.4438
313.15 K, x2 = 0.1687	768.4	1.4508
313.15 K, x2 = 0.2383	770.9	1.4581
313.15 K, x2 = 0.3091	773.8	1.465
313.15 K, x2 = 0.4032	778.4	1.4726
313.15 K, x2 = 0.5043	784.5	1.4795
313.15 K, x2 = 0.6492	797	1.486
313.15 K, x2 = 0.8251	821.1	1.4928
318.15 K, x2 = 0	759.8	–
318.15 K, x2 = 0.0702	761.8	1.4358
318.15 K, x2 = 0.1162	763.1	1.4431
318.15 K, x2 = 0.1687	764.8	1.45
318.15 K, x2 = 0.2383	767.2	1.4575
318.15 K, x2 = 0.3091	770.1	1.4643
318.15 K, x2 = 0.4032	774.7	1.4718
318.15 K, x2 = 0.5043	780.8	1.4788
318.15 K, x2 = 0.6492	793.3	1.4853
318.15 K, x2 = 0.8251	817.2	1.492
